According to EP4610269A1, “UROKINASE PLASMINOGEN ACTIVATOR SURFACE RECEPTOR (UPAR) LIGANDS FOR DIAGNOSTIC OR THERAPEUTIC USE” (3B Pharmaceuticals GmbH, priority 2024, dated 2025):
Read-outs that look alike come from different tables or passages of the source. Where a SMILES comes first, the peptide text is derived from it. Bridges are numbered along the chain shown (N, C = ends). [ ]: non-standard residue; d: D form. The star is where a group is joined. GdDOTA = Gd(III) DOTA conjugate, O=C([O-])CN1CCN(CC(=O)[O-])CCN(CC(=O)*)CCN(CC(=O)[O-])CC1.[Gd+3]; DOTA = O=C(O)CN1CCN(CC(=O)O)CCN(CC(=O)*)CCN(CC(=O)O)CC1; Pro(trans-4-F) = O=C(O)[C@@H]1C[C@@H](F)CN1; Hyp = O=C(O)[C@@H]1C[C@@H](O)CN1; 3Pal = N[C@@H](Cc1cccnc1)C(=O)O; Cit = NC(=O)NCCC[C@H](N)C(=O)O; Nva = CCC[C@H](N)C(=O)O; Pentanoyl = CCCCC(=O)*

What was measured:
[1] = biological target: T1, human uPAR (uPAR-Fc) (Homo sapiens, UniProt Q03405); test: Surface plasmon resonance (SPR) assay, single cycle kinetics; format: binding; settings: pKD category for uPAR SPR activity assay, uPAR-Fc on Protein A-Chip, 25°C; for Kd: read-out: pKD CAT (converted)
T1 construct: comprising amino acids Leu23-Arg303 according to UniProt entry Q03405.1; purchased R&D Systems 10378-UK-100
T1 sequence (Q03405 23-303): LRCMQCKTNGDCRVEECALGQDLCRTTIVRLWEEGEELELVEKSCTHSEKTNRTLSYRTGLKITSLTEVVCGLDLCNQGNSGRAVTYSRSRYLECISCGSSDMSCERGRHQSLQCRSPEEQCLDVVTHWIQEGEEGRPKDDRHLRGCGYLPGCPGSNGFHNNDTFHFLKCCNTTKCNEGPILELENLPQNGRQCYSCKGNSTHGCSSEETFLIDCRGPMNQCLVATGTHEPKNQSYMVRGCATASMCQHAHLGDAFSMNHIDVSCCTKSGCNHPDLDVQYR
Procedure: Surface plasmon resonance (SPR) is an optical technique used to measure molecular interactions in real time. SPR occur when plane-polarized light hits a metal film under total internal reflection conditions. SPR signal is directly dependent on the refractive index of the medium on the sensor chip. In an SPR experiment, one molecule (i.e. uPAR) is immobilized on a sensor chip and binding to a second molecule (i.e. test compounds) is measured under flow. The binding of the compound on the surface changes the refractive index. In responses the reflection angle changes as compounds bind and dissociate on the immobilized protein on the surface. This response is measured in resonance units (RU). The RUs are proportional to the number of molecules bound to the surface. […] Kinetic binding constants and equilibrium binding constants can be derived from the sensorgrams.
Surface plasmon resonance (SPR) studies were performed using a Biacore™ T200 or S200 SPR system (Cytiva, formerly GE Life Sciences) to assess binding of compounds to recombinant uPAR protein.
In this example recombinant protein comprising the extracellular domains of human uPAR (uPAR-Fc, R&D Systems, CAT 10378-UK-100, comprising amino acids Leu23-Arg303 according to UniProt entry Q03405.1 and Fc region of human IgG1 at the C-terminus) was immobilized on a Protein A-Chip (Cytiva, CAT 29127555) according to the supplier's instructions. uPAR-Fc was diluted in Running Buffer (10 mM HEPES, 150 mM NaCl, 50 µM EDTA, 0.1% DMSO, 0.05% Tween-20, pH 7.4) to a final concentration of 100 nM and then flushed over the Protein A-Chip to immobilized ~2000 RUs.
Stock solutions of test compounds were prepared by dissolving each compound in DMSO. DMSO stock solution were diluted 1: 1000 in Running Buffer without DMSO. Further sequential dilutions were made with Running Buffer containing 0.1% DMSO. SPR binding analyses were performed in Single Cycle Kinetic (SCK) mode at 25°C. Flow cell without immobilized uPAR-Fc served as reference flow cell. The chip was regenerated with 10 mM Glycine, pH 1,5 to remove the uPAR-Fc from the chip surface after each SCK run. After every three SCK measurements, a blank run with Running Buffer instead of test compound was included to correct for baseline drifts (double reference substraction method). Table 11: SPR protocol steps for SCK with uPAR-Fc immobilized on a Protein A-Chip.
For each test compound, SPR raw data sensorgrams were recorded using the Biacore™ T200 or S200 control software. Sensorgrams were processed and analyzed with the Biacore™ Insight Evaluation software. […] The reference subtracted sensorgram for each test compound was further corrected for baseline drift by subtracting the sensorgram of a reference subtracted blank run (Running Buffer only). The dissociation constant (KD) was calculated from the double reference subtracted sensorgrams using the 1:1 Langmuir binding model. The pKD value (negative decadic logarithm of dissociation constant) was calculated using Microsoft Excel.

[2] = biological target: T2, uPAR-expressing HEC-265 human endometrial adenocarcinoma cells (Homo sapiens, UniProt Q03405); test: Competitive FACS binding assay; settings: pIC50 category of FACS binding
T2 construct: Cell surface uPAR-expressing HEC-265 human endometrial adenocarcinoma cells; host or cells: HEC-265
T2 sequence (Q03405 23-335): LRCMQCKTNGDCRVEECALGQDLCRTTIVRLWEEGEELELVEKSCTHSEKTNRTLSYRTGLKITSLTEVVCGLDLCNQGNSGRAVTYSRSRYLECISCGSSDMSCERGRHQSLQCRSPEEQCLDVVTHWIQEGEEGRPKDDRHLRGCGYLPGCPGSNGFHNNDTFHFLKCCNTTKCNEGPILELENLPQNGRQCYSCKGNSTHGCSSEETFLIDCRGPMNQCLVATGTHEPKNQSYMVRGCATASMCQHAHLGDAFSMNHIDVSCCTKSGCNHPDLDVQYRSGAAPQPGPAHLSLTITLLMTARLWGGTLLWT
Procedure: In order to determine binding of compounds according to the present invention to uPAR-expressing cells, a competitive FACS binding assay was established.
Cell surface uPAR-expressing HEC-265 human endometrial adenocarcinoma cells (Japanese Collection of Research Bioresources, #JCRB1142) were cultured in MEM Eagle with stable glutamine (Pan Biotech, #P04-09500) including 15% fetal bovine serum (Pan Biotech, #P30-3306) and 100 U/ml penicillin and 100 µg/mL streptomycin (Pan Biotech, #P06-07100). Cells were detached with Cell Dissociation Buffer (Thermo Scientific, #13151014) and washed in FACS buffer (PBS (Pan Biotech, #P04-36500) including 1% BSA (SeraCare, #AP-4510-80). Cells were diluted in FACS buffer to a final concentration of 500.000 cells per ml and 200 µl of the cell suspension are transferred to a u-shaped non-binding 96-well plate (Greiner Bio-One, #650901).
For IC50 determination, cells were incubated with 10 nM Bio--Ttds--Ttds--Ttds--Ttds-D-Cha-FsrYLWS-NH2) in the presence of increasing concentrations of non-labeled test compounds at 4°C for 1 hour. Cells were washed twice in FACS buffer. An additional incubation step with 1 µg/mL APC-Streptavidin (Miltenyi; #130-106-791) in 50 µL FACS buffer for 30 minutes on ice was performed followed by two washes with FACS buffer. Cells were resuspended in 200 µl FACS buffer and analyzed in an Attune NxT flow cytometer. Median fluorescence intensities (APC channel) were calculated by Attune NxT software and plotted against peptide concentrations. Four parameter logistic (4PL) curve fitting and pIC50 calculations were performed using ActivityBase software.

Row | Kd ([1]; single cycle kinetics) [nM] | IC50 [2] [nM] | pKD CAT ([1]; single cycle kinetics) | pIC50 CAT [2] | Kd [1] [nM] | Compound
1 | 1.58 to 10 | ≤ 10 | – | – | – | CCCCC(=O)N[C@H]1CSSC[C@@H](C(N)=O)NC(=O)[C@H](CCC)NC(=O)[C@H]([C@@H](C)CC)NC(=O)[C@@H]2C[C@@H](O)CN2C(=O)[C@H](Cc2ccccc2)NC(=O)[C@H](Cc2ccccc2)NC(=O)[C@H](Cc2ccc(O)cc2)NC(=O)[C@H](CCC(N)=O)NC(=O)[C@H](CCCNC(=N)N)NC1=O [UPAR-400, Pent-[Cys-Arg-Gln-Tyr-Phe-Phe-Hyp-Ile-Nva-Cys]-NH2] (Pentanoyl-CRQYFF[Hyp]I[Nva]C-NH2; disulfide 1-10)
2 | – | – | A (pKD values ≥ 8.8) | A (pIC50 values ≥8.0) | – | Pent-[Cys-Cit-Lys(LuDOTA)-Guf-Phe-Pro-Hyp-Ile-Nva-Cys]-NH2 [UPAR-350]
3 | – | – | A (pKD values ≥ 8.8) | A (pIC50 values ≥8.0) | – | Butoc-[Cys-Cit-Lys(LuDOTA)-Tyr-Pcf-4Cfp-Hyp-Ile-Nva-Cys]-NH2 [UPAR-369]
4 | – | ≤ 10 | – | – | 1.58 to 10 | CCCCC(=O)N[C@H]1CSSC[C@@H](C(N)=O)NC(=O)[C@H](CCC)NC(=O)[C@H]([C@@H](C)CC)NC(=O)[C@@H]2C[C@@H](F)CN2C(=O)[C@@H]2CCCN2C(=O)[C@H](Cc2cccnc2)NC(=O)[C@H](Cc2ccc(O)cc2)NC(=O)[C@H](CCCCNC(=O)CN2CCN(CC(=O)O)CCN(CC(=O)O)CCN(CC(=O)O)CC2)NC(=O)[C@H](CCCNC(N)=O)NC1=O [UPAR-207, Pent-[Cys-Cit-Lys(DOTA)-Tyr-Mpa-Pro-4Tfp-Ile-Nva-Cys]-NH2] (Pentanoyl-C[Cit]K(DOTA)Y[3Pal]P[Pro(trans-4-F)]I[Nva]C-NH2; disulfide 1-10)
5 | – | – | A (pKD values ≥ 8.8) | A (pIC50 values ≥8.0) | – | Pent-[Cys-Cit-Lys(GdDOTA)-Tyr-Phe-Pro-4Tfp-Ile-Nva-Cys]-NH2 (Pentanoyl-C[Cit]K(GdDOTA)YFP[Pro(trans-4-F)]I[Nva]C-NH2; disulfide 1-10; not fully specified; also: Gd(III) complexed by DOTA) [UPAR-435]
6 | < 1.58 | ≤ 10 | – | – | – | CCCCC(=O)N[C@H]1CSSC[C@@H](C(N)=O)NC(=O)[C@H](CCC)NC(=O)[C@H](Cc2ccccc2)NC(=O)[C@@H]2C[C@@H](O)CN2C(=O)[C@@H]2CCCN2C(=O)[C@H](Cc2ccccc2)NC(=O)[C@H](Cc2ccc(O)cc2)NC(=O)[C@H](CCC(N)=O)NC(=O)[C@H](CCCNC(=N)N)NC1=O [UPAR-447, Pent-[Cys-Arg-Gln-Tyr-Phe-Pro-Hyp-Phe-Nva-Cys]-NH2] (Pentanoyl-CRQYFP[Hyp]F[Nva]C-NH2; disulfide 1-10)
